Data taken from PubChem BioAssay AID248 (DTP/NCI, 2004).
Where “and” joins values, the source holds several entries; their conditions need not be identical. Equal values may be shown once. Inconclusive results and toxic doses are left out.

Tested on: L1210 leukemia ip in BDF1 mice, survival T/C
Test: NCI In Vivo Anticancer Drug Screen. Data for tumor model L1210 Leukemia (intraperitoneal) in B6D2F1 (BDF1) mice
Settings: endpoint: mean survival time, higher = longer survival
How it was run: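 Transplanted-tumor mice were given test agent; controls received vehicle only. Survival readings from the two groups were divided (treated over control).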

[1] = dose: 25.0 mg/kg/injection, schedule: Q04DX003 (ip), vehicle: Klucel (hydroxypropylcellulose) (HPC)
[2] = dose: 100.0 mg/kg/injection, schedule: Q04DX003 (ip), vehicle: Klucel (hydroxypropylcellulose) (HPC)
[3] = dose: 100.0 mg/kg/injection, schedule: Q04DX003 (ip), vehicle: saline with Tween-80
[4] = dose: 200.0 mg/kg/injection, schedule: Q04DX003 (ip), vehicle: saline with Tween-80
[5] = dose: 100.0 mg/kg/injection, schedule: Q01DX001 (ip), vehicle: carboxymethylcellulose (CMC)
[6] = dose: 200.0 mg/kg/injection, schedule: Q01DX001 (ip), vehicle: carboxymethylcellulose (CMC)
[7] = dose: 100.0 mg/kg/injection, schedule: Q01DX009 (ip), vehicle: Klucel (hydroxypropylcellulose) (HPC)
[8] = dose: 200.0 mg/kg/injection, schedule: Q01DX009 (ip), vehicle: Klucel (hydroxypropylcellulose) (HPC)
[9] = dose: 400.0 mg/kg/injection, schedule: Q01DX009 (ip), vehicle: Klucel (hydroxypropylcellulose) (HPC)
[10] = dose: 25.0 mg/kg/injection, schedule: Q01DX009 (ip), vehicle: saline
[11] = dose: 50.0 mg/kg/injection, schedule: Q01DX009 (ip), vehicle: saline
[12] = dose: 100.0 mg/kg/injection, schedule: Q04DX003 (ip), vehicle: saline
[13] = dose: 200.0 mg/kg/injection, schedule: Q04DX003 (ip), vehicle: saline
[14] = dose: 400.0 mg/kg/injection, schedule: Q04DX003 (ip), vehicle: saline
[15] = dose: 100.0 mg/kg/injection, schedule: Q01DX001 (ip), vehicle: Klucel (hydroxypropylcellulose) (HPC)
[16] = dose: 200.0 mg/kg/injection, schedule: Q01DX001 (ip), vehicle: Klucel (hydroxypropylcellulose) (HPC)
[17] = dose: 400.0 mg/kg/injection, schedule: Q01DX001 (ip), vehicle: Klucel (hydroxypropylcellulose) (HPC)

In the case of Oc1cccc2oc(=S)[nH]c12, the T/C [1] is reported as 106 % of control, the T/C (dose: 50.0 mg/kg/injection, schedule: Q04DX003 (ip), vehicle: Klucel (hydroxypropylcellulose) (HPC)) is reported as 92 % of control and the T/C [2] is reported as 103 % of control. For the same molecule, the T/C [3] was 95 % of control and 100 % of control and the T/C [4] was 110 % of control.
CC(C)(C)C1CCC(C(=O)c2ccccc2)CC1 (centres undefined) was tested, and the T/C [3] was 100 % of control, the T/C [4] was 94 % of control and the T/C (dose: 400.0 mg/kg/injection, schedule: Q04DX003 (ip), vehicle: saline with Tween-80) was 89 % of control.
For Nn1nnc(-c2ccccc2)c1-c1ccccc1, the T/C [5] was 100 % of control and the T/C [6] was 100 % of control.
With CCc1ccccc1NC(=O)Nc1ccccc1 the T/C [7] was 94 % of control, the T/C [2] was 103 % of control and the T/C [8] was 98 % of control. The T/C (dose: 200.0 mg/kg/injection, schedule: Q04DX003 (ip), vehicle: Klucel (hydroxypropylcellulose) (HPC)) was 94 % of control, the T/C [9] was 105 % of control and the T/C (dose: 400.0 mg/kg/injection, schedule: Q04DX003 (ip), vehicle: Klucel (hydroxypropylcellulose) (HPC)) was 95 % of control.
In the case of N#CCc1ccccc1NC(=O)CCl, the T/C (dose: 100.0 mg/kg/injection, schedule: Q01DX001 (ip), vehicle: saline with Tween-80) is reported as 100 % of control, the T/C (dose: 200.0 mg/kg/injection, schedule: Q01DX001 (ip), vehicle: saline with Tween-80) is reported as 106 % of control and the T/C (dose: 400.0 mg/kg/injection, schedule: Q01DX001 (ip), vehicle: saline with Tween-80) is reported as 108 % of control.
In the case of COC(=O)Cc1ccc([N+](=O)[O-])cc1, the T/C [5] is reported as 94 % of control, the T/C [6] is reported as 91 % of control and the T/C (dose: 400.0 mg/kg/injection, schedule: Q01DX001 (ip), vehicle: carboxymethylcellulose (CMC)) is reported as 88 % of control.
For CCN(CC)CCCNc1cc(Cl)c(Cl)cc1[N+](=O)[O-], the T/C (dose: 12.0 mg/kg/injection, schedule: Q01DX009 (ip), vehicle: saline) was 104 % of control, the T/C [10] was 95 % of control and the T/C [11] was 91 % of control. The T/C [12] was 95 % of control, the T/C [13] was 90 % of control and the T/C [14] was 96 % of control.
In the case of CC(=O)OCC1OC(N2C(=O)/C(=C(/C)c3ccncc3)SC2=S)C(OC(C)=O)C(OC(C)=O)C1OC(C)=O (centres undefined), the T/C (dose: 25.0 mg/kg/injection, schedule: Q01DX005 (ip), vehicle: water) is reported as 94 % of control, the T/C (dose: 50.0 mg/kg/injection, schedule: Q01DX005 (ip), vehicle: water) is reported as 97 % of control and the T/C (dose: 100.0 mg/kg/injection, schedule: Q01DX005 (ip), vehicle: water) is reported as 97 % of control. The T/C (dose: 200.0 mg/kg/injection, schedule: Q01DX005 (ip), vehicle: water) was 97 % of control and the T/C (dose: 400.0 mg/kg/injection, schedule: Q01DX005 (ip), vehicle: water) was 89 % of control.
For CS(=O)(=O)OCC(=O)NCCNC(=O)COS(C)(=O)=O, the T/C (dose: 25.0 mg/kg/injection, schedule: Q01DX Z (ip), vehicle: saline) was 109 % of control, the T/C (dose: 33.0 mg/kg/injection, schedule: Q01DX Z (ip), vehicle: carboxymethylcellulose (CMC)) was 113 % of control and 120 % of control and the T/C (dose: 47.0 mg/kg/injection, schedule: Q01DX Z (ip), vehicle: carboxymethylcellulose (CMC)) was 122 % of control. The T/C (dose: 50.0 mg/kg/injection, schedule: Q01DX015 (ip), vehicle: saline) was 108 % of control and 122 % of control, the T/C (dose: 50.0 mg/kg/injection, schedule: Q01DX Z (ip), vehicle: carboxymethylcellulose (CMC)) was 104 % of control and the T/C (dose: 50.0 mg/kg/injection, schedule: Q01DX Z (ip), vehicle: saline) was 109 % of control. The T/C (dose: 50.0 mg/kg/injection, schedule: Q04DX003 (ip), vehicle: carboxymethylcellulose (CMC)) was 111 % of control, the T/C (dose: 66.0 mg/kg/injection, schedule: Q01DX Z (ip), vehicle: carboxymethylcellulose (CMC)) was 106 % of control and the T/C (dose: 75.0 mg/kg/injection, schedule: Q01DX Z (ip), vehicle: carboxymethylcellulose (CMC)) was 120 % of control. The T/C (dose: 100.0 mg/kg/injection, schedule: Q01DX015 (ip), vehicle: saline) was 114 % of control, the T/C (dose: 100.0 mg/kg/injection, schedule: Q01DX Z (ip), vehicle: saline) was 115 % of control and the T/C (dose: 100.0 mg/kg/injection, schedule: Q04DX003 (ip), vehicle: carboxymethylcellulose (CMC)) was 110 % of control. For the same molecule, the T/C (dose: 105.0 mg/kg/injection, schedule: Q01DX Z (ip), vehicle: carboxymethylcellulose (CMC)) was 154 % of control, the T/C (dose: 115.0 mg/kg/injection, schedule: Q01DX Z (ip), vehicle: carboxymethylcellulose (CMC)) was 120 % of control and the T/C (dose: 175.0 mg/kg/injection, schedule: Q01DX Z (ip), vehicle: carboxymethylcellulose (CMC)) was 118 % of control. For the same molecule, the T/C (dose: 180.0 mg/kg/injection, schedule: Q01DX009 (ip), vehicle: saline) was 168 % of control, the T/C (dose: 200.0 mg/kg/injection, schedule: Q04DX003 (ip), vehicle: carboxymethylcellulose (CMC)) was 119 % of control and the T/C [13] was 111 % of control. For the same molecule, the T/C (dose: 225.0 mg/kg/injection, schedule: Q01DX Z (ip), vehicle: carboxymethylcellulose (CMC)) was 92 % of control, the T/C (dose: 256.0 mg/kg/injection, schedule: Q01DX009 (ip), vehicle: saline) was 161 % of control and 169 % of control and the T/C (dose: 400.0 mg/kg/injection, schedule: Q01DX015 (ip), vehicle: saline) was 162 % of control. For the same molecule, the T/C (dose: 400.0 mg/kg/injection, schedule: Q01DX Z (ip), vehicle: carboxymethylcellulose (CMC)) was 102 % of control, the T/C (dose: 400.0 mg/kg/injection, schedule: Q01DX Z (ip), vehicle: saline) was 105 % of control and the T/C [14] was 116 % of control. For the same molecule, the T/C (dose: 800.0 mg/kg/injection, schedule: Q04DX003 (ip), vehicle: saline) was 116 % of control.
c1ccc(C(c2ccccc2)C2CSC2)cc1 was tested, and the T/C (dose: 50.0 mg/kg/injection, schedule: Q04DX002 (ip), vehicle: gum acacia) was 93 % of control, the T/C (dose: 100.0 mg/kg/injection, schedule: Q04DX002 (ip), vehicle: gum acacia) was 100 % of control and the T/C (dose: 200.0 mg/kg/injection, schedule: Q04DX002 (ip), vehicle: gum acacia) was 93 % of control.
CC1C2CCC(C2)C1(C)C (centres undefined) was tested, and the T/C [15] was 93 % of control, the T/C [16] was 100 % of control and the T/C [17] was 102 % of control.
In the case of C1=CC(OC2C=CCC2)CC1 (centres undefined), the T/C (dose: 25.0 mg/kg/injection, schedule: Q04DX002 (ip), vehicle: saline) is reported as 89 % of control, the T/C (dose: 50.0 mg/kg/injection, schedule: Q04DX002 (ip), vehicle: saline) is reported as 118 % of control and the T/C (dose: 100.0 mg/kg/injection, schedule: Q04DX002 (ip), vehicle: saline) is reported as 99 % of control.
With CN(C)C1CC1c1ccccc1 (centres undefined) the T/C (dose: 6.25 mg/kg/injection, schedule: Q01DX009 (ip), vehicle: saline) was 106 % of control, the T/C (dose: 12.5 mg/kg/injection, schedule: Q01DX009 (ip), vehicle: saline) was 95 % of control and the T/C [10] was 95 % of control. The T/C (dose: 25.0 mg/kg/injection, schedule: Q04DX003 (ip), vehicle: saline) was 100 % of control, the T/C [11] was 106 % of control and the T/C (dose: 50.0 mg/kg/injection, schedule: Q04DX003 (ip), vehicle: saline) was 100 % of control. The T/C [12] was 100 % of control.
For COc1ccc(OC)c(C2=CCCCCC2)c1OC, the T/C (dose: 100.0 mg/kg/injection, schedule: Q01DX009 (ip), vehicle: saline with Tween-80) was 95 % of control, the T/C (dose: 200.0 mg/kg/injection, schedule: Q01DX009 (ip), vehicle: saline with Tween-80) was 106 % of control and the T/C (dose: 400.0 mg/kg/injection, schedule: Q01DX009 (ip), vehicle: saline with Tween-80) was 100 % of control.
CN(C)c1ccc(C=C2/C(=N\O)c3ccccc3/C2=N/O)cc1 was tested, and the T/C [7] was 98 % of control, the T/C [8] was 96 % of control and the T/C [9] was 94 % of control.
With O=[N+]([O-])c1c(Cl)ccc2nsnc12 the T/C (dose: 12.5 mg/kg/injection, schedule: Q04DX003 (ip), vehicle: Klucel (hydroxypropylcellulose) (HPC)) was 96 % of control and the T/C [1] was 93 % of control.
For CC(C)CCn1ccc(=O)[nH]c1=O, the T/C [15] was 100 % of control, the T/C [16] was 98 % of control and the T/C [17] was 105 % of control.
O=C1CCc2cc(Br)ccc2O1 was tested, and the T/C (dose: 50.0 mg/kg/injection, schedule: Q01DX001 (ip), vehicle: saline) was 92 % of control, the T/C (dose: 100.0 mg/kg/injection, schedule: Q01DX001 (ip), vehicle: saline) was 103 % of control and the T/C (dose: 200.0 mg/kg/injection, schedule: Q01DX001 (ip), vehicle: saline) was 100 % of control. The T/C (dose: 400.0 mg/kg/injection, schedule: Q01DX001 (ip), vehicle: saline) was 100 % of control.
